Measurements reported in patent US6822100B2 (Bristol-Myers Squibb Company, priority 2001, dated 2004).
pKi: −log10 of the molar value. Where a name gives a salt, the structure may show the parent alone. Read-outs that look alike come from different tables or passages of the source.

What was measured:
[1] = target: T1, recombinant human dopamine D2L receptors (Homo sapiens, UniProt P14416); test: Dopamine Binding Assay; conditions: HEK-D2L cell membranes, 150 pM [3H]-spiperone, Cheng and Prusoff
T1 construct: expressed in transfected cells; host or cells: HEK-293 (HEK-D2L), membrane homogenates
Method in brief: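 Competition binding on HEK-293 membranes stably expressing human D2L (~5 μg protein) with 150 pM [3H]-spiperone, 1.5 h at 22 °C in 50 mM Tris pH 7.4, 1 mM EDTA, 6 mM MgCl2. Filtration read-out; non-specific binding defined with 2 μM (+)butaclamol, Ki by Cheng-Prusoff.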

[2] = target: T2, human serotonin transporters (Homo sapiens, UniProt P31645); test: Serotonin Transporter Binding Assay; conditions: HEK-hSERT cell membranes, 1 nM [3H]-citalopram, Cheng and Prusoff; for pKi: read-out: SERT Ki; for Ki: SERT Ki (nM)
T2 construct: expressed in transfected cells; host or cells: HEK-293 (HEK-hSERT), membrane homogenates
Method in brief: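 Membranes from HEK-293 cells stably expressing hSERT were incubated 1 hr at 25° C with 1 nM [^3H]-citalopram and test compound in 50 mM Tris pH 7.4, 120 mM NaCl, 5 mM KCl, then filtered. Non-specific binding was defined by 10 μM fluoxetine. IC50 came from displacement curves, and Ki by Cheng–Prusoff.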

T2 sequence (P31645 whole entry): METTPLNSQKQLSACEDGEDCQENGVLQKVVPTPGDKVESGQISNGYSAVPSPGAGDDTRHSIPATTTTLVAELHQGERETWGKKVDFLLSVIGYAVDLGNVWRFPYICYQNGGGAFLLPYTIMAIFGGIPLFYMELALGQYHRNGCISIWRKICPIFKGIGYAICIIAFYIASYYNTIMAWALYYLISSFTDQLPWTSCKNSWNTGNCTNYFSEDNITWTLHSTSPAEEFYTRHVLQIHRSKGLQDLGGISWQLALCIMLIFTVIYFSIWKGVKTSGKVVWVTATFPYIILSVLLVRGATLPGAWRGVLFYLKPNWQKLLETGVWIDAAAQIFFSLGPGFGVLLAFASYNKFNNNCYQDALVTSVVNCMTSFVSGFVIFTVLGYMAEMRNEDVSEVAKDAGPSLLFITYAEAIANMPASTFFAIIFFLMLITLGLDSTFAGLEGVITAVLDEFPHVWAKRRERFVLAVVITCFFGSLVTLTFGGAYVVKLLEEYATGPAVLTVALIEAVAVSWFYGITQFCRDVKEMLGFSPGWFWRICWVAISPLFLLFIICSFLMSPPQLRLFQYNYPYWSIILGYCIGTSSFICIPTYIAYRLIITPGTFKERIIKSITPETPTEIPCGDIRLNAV
T1 sequence (P14416 whole entry): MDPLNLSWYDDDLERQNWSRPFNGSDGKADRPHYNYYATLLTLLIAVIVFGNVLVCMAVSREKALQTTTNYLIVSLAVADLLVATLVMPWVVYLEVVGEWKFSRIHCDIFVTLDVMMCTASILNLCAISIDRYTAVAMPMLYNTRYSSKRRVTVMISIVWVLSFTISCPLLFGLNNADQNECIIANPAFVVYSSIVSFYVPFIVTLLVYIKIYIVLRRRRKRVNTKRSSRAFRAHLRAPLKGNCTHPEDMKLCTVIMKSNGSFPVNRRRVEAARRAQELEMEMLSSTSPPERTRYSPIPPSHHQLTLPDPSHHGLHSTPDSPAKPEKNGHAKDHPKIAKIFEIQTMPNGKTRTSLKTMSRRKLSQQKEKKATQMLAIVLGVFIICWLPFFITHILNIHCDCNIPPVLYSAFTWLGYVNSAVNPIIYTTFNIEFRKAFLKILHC

COc1ccc(CNCC2CC2c2c[nH]c3ccc(F)cc23)cc1 (stereo not drawn) [Example 52, trans-2-[5-Fluoroindol-3-yl]-1-[N-(4-methoxybenzyl)aminomethyl]-cyclopropane]
pKi [1]: 6.00 to 7.00
pKi [2]: 7.00 to 8.00

Fc1ccc2[nH]cc(C3CC3CNCc3ccccc3F)c2c1 (stereo not drawn) [Example 53, trans-1-[N-(2-Fluorobenzyl)aminomethyl]2-[5-fluoroindol-3-yl]-cyclopropane]
pKi [1]: 6.00 to 7.00
pKi [2]: 7.00 to 8.00

Fc1cccc(CNCC2CC2c2c[nH]c3ccc(F)cc23)c1 (stereo not drawn) [Example 54, trans-1-[N-(3-Fluorobenzyl)aminomethyl]2-[5-fluoroindol-3-yl]-cyclopropane]
pKi [1]: 6.00 to 7.00
pKi [2]: 7.00 to 8.00

Fc1ccc(CNCC2CC2c2c[nH]c3ccc(F)cc23)cc1 (stereo not drawn) [Example 55, trans-1-[N-(4-Fluorobenzyl)aminomethyl]2-[5-fluoroindol-3-yl]-cyclopropane]
pKi [1]: 6.00 to 7.00
pKi [2]: 7.00 to 8.00

Fc1ccc2[nH]cc(C3CC3CNCc3ccccn3)c2c1 (stereo not drawn) [Example 56, trans-2-[5-Fluoroindol-3-yl]-1-[N-(2-pyridylmethyl)aminomethyl]-cyclopropane]
pKi [1]: 6.00 to 7.00
pKi [2]: 7.00 to 8.00

Fc1ccc2[nH]cc(C3CC3CNCc3cccnc3)c2c1 (stereo not drawn) [Example 57, trans-2-[5-Fluoroindol-3-yl]-1-[N-(3-pyridylmethyl)aminomethyl]-cyclopropane]
pKi [1]: 7.00 to 8.00
pKi [2]: 7.00 to 8.00

Fc1ccc2[nH]cc(C3CC3CNCc3ccncc3)c2c1 (stereo not drawn) [Example 58, trans-2-[5-Fluoroindol-3-yl]-1-[N-(4-pyridylmethyl)aminomethyl]-cyclopropane]
pKi [1]: 7.00 to 8.00
pKi [2]: 7.00 to 8.00

Fc1ccc2[nH]cc(C3CC3CNCCc3ccccc3F)c2c1 (stereo not drawn) [Example 59, trans-2-[5-Fluoroindol-3-yl]-1-[N-(2-fluorophenyl)ethylaminomethyl]-cyclopropane]
pKi [1]: 7.00 to 8.00
pKi [2]: 7.00 to 8.00

Fc1cccc(CCNCC2CC2c2c[nH]c3ccc(F)cc23)c1 (stereo not drawn) [Example 60, trans-2-[5-Fluoroindol-3-yl]-1-[N-(3-fluorophenyl)ethylaminomethyl]-cyclopropane]
pKi [1]: 6.00 to 7.00
pKi [2]: 7.00 to 8.00

Fc1ccc(CCNCC2CC2c2c[nH]c3ccc(F)cc23)cc1 (stereo not drawn) [Example 61, trans-2-[5-Fluoroindol-3-yl]-1-[N-(4-fluorophenyl)ethylaminomethyl]-cyclopropane]
pKi [1]: 7.00 to 8.00
pKi [2]: 7.00 to 8.00

Fc1ccc2[nH]cc(C3CC3CNCCCc3ccccc3)c2c1 (stereo not drawn) [Example 62, trans-2-[5-Fluoroindol-3-yl]-1-[N-3-phenylpropylaminomethyl]-cyclopropane]
pKi [1]: 7.00 to 8.00
pKi [2]: 8.00 to 9.00

Fc1ccc2[nH]cc(C3CC3CNCCCc3cccnc3)c2c1 (stereo not drawn) [Example 63, trans-2-[5-Fluoroindol-3-yl]-1-[N-3-(3-pyridyl)propylaminomethyl]-cyclopropane]
pKi [1]: 7.00 to 8.00
pKi [2]: 7.00 to 8.00

Fc1ccc2[nH]cc(C3CC3CNCCc3c[nH]cn3)c2c1 (stereo not drawn) [Example 64, trans-2-[5-Fluoroindol-3-yl]-1-[N-2-(4-imidazolyl)ethylaminomethyl]-cyclopropane]
pKi [1]: 7.00 to 8.00
pKi [2]: 7.00 to 8.00

Fc1ccc2[nH]cc(C3CC3CNCCCn3ccnc3)c2c1 (stereo not drawn) [Example 65, trans-2-[5-Fluoroindol-3-yl]-1-[N-3-(1-imidazolyl)propylaminomethyl]-cyclopropane]
pKi [1]: 7.00 to 8.00
pKi [2]: 7.00 to 8.00

Fc1ccc2[nH]cc(C3CC3CNCc3cccs3)c2c1 (stereo not drawn) [Example 66, trans-2-[5-Fluoroindol-3-yl]-1-[N-2-thiopheneylmethylaminomethyl]-cyclopropane]
pKi [1]: 6.00 to 7.00
pKi [2]: 7.00 to 8.00

Fc1ccc2[nH]cc(C3CC3CNCCc3cccs3)c2c1 (stereo not drawn) [Example 67, trans-2-[5-Fluoroindol-3-yl]-1-[N-2-(2-thiopheneyl)ethylaminomethyl]-cyclopropane]
pKi [1]: 7.00 to 8.00
pKi [2]: 7.00 to 8.00

Fc1ccc2[nH]cc(C3CC3CNCCc3c[nH]c4ccccc34)c2c1 (stereo not drawn) [Example 68, trans-2-[5-Fluoroindol-3-yl]-1-[N-2-(3-indolyl)ethylaminomethyl]-cyclopropane]
pKi [1]: 7.00 to 8.00
pKi [2]: 8.00 to 9.00

Fc1ccc2[nH]cc(C3CC3CNCC3CC3)c2c1 (stereo not drawn) [Example 69, trans-1-[N-Cyclopropylmethylaminomethyl]-2-[5-fluoroindol-3-yl]-cyclopropane]
pKi [1]: 6.00 to 7.00
pKi [2]: 7.00 to 8.00

Fc1ccc2[nH]cc(C3CC3CNC3CCCCC3)c2c1 (stereo not drawn) [Example 70, trans-1-[N-Cyclohexylaminomethyl]-2-[5-fluoroindol-3-yl]-cyclopropane]
pKi [1]: 6.00 to 7.00
pKi [2]: 7.00 to 8.00

Fc1ccc2[nH]cc(C3CC3CNCC3CCCCC3)c2c1 (stereo not drawn) [Example 71, trans-1-[N-Cyclohexylmethylaminomethyl]-2-[5-fluoroindol-3-yl]-cyclopropane]
pKi [1]: 7.00 to 8.00
pKi [2]: 7.00 to 8.00

CC(C)CCNCC1CC1c1c[nH]c2ccc(F)cc12 (stereo not drawn) [Example 72, trans-2-[5-Fluoroindol-3-yl]-1-[N-3-methyl-butylaminomethyl]-cyclopropane]
pKi [1]: 6.00 to 7.00
pKi [2]: 7.00 to 8.00

Fc1ccc2[nH]cc(C3CC3CN3CCC(Cc4ccccc4)CC3)c2c1 (stereo not drawn) [Example 73, trans-1-(4-Benzyl-piperidin-1-yl-methyl)-2-[5-fluoroindol-3-yl]-cyclopropane]
pKi [1]: 7.00 to 8.00
pKi [2]: 8.00 to 9.00

Fc1ccc2[nH]cc(C3CC3CN3CCNCC3)c2c1 (stereo not drawn) [Example 74, trans-2-[5-Fluoroindol-3-yl]-1-(piperazin-1-yl-methyl)-cyclopropane]
pKi [1]: < 6.00
Ki [2]: 1 to 10 nM

Fc1ccc2[nH]cc(C3CC3CN3CCN(Cc4ccccc4)CC3)c2c1 (stereo not drawn) [Example 75, trans-1-[4-Benzyl-piperazin-1-yl-methyl]-2-[5-fluoroindol-3-yl]-cyclopropane]
pKi [1]: 7.00 to 8.00
pKi [2]: 7.00 to 8.00

CCCN(CCC)CC1CC1c1c[nH]c2ccc(F)cc12 (stereo not drawn) [Example 77, trans-1-[N,N-Dipropylaminomethyl]-2-[5-fluoroindol-3-yl]-cyclopropane]
pKi [1]: 6.00 to 7.00
pKi [2]: 7.00 to 8.00

Fc1ccc2[nH]cc(C3CC3CN3CCCC3)c2c1 (stereo not drawn) [Example 84, trans-2-[5-Fluoroindol-3-yl]-1-[pyrrolidin-1-yl-methyl]-cyclopropane]
pKi [1]: 6.00 to 7.00
pKi [2]: 8.00 to 9.00

Fc1ccc2[nH]cc(C3CC3CN3CCCCC3)c2c1 (stereo not drawn) [Example 85, trans-2-[5-Fluoroindol-3-yl]-1-[piperidin-1-yl-methyl]-cyclopropane]
pKi [1]: < 6.00
Ki [2]: 10 to 100 nM

CNC[C@H]1C[C@@H]1c1c[nH]c2ccc(C#N)cc12 [Example 120, (1S,2S)-trans-2-[5-Cyanoindol-3-yl]-1-(N-methylaminomethyl)cyclopropane]
pKi [1]: 6.00 to 7.00
pKi [2]: 8.00 to 9.00

CC(C1CC1c1c[nH]c2ccc(C#N)cc12)N1CCCC1 (stereo not drawn) [Example 124, trans-3-[2-(1-Pyrrolidin-1-yl-ethyl)-cyclopropyl]-1H-indole-5-carbonitrile]
pKi [1]: < 6.00
Ki [2]: 1 to 10 nM

CN(C)C[C@@H]1C[C@H]1c1c[nH]c2ccc(C#N)cc12 [Example 127a, (1R,2R)-trans-2-[5-Cyanoindol-3-yl]-1-(N,N-dimethylaminomethyl)cyclopropane maleate salt]
pKi [1]: < 6.00
pKi [2]: 7.00 to 8.00

CN(C)C[C@@H]1C[C@H]1c1c[nH]c2ccc(F)cc12 [Example 128a, (1R,2R)-trans-1-(N,N-dimethylaminomethyl)-2-[5-fluoroindol-3-yl]-cyclopropane maleate salt]
pKi [1]: < 6.00
pKi [2]: 7.00 to 8.00

CN(Cc1ccccc1)CC1CC1c1c[nH]c2ccc(F)cc12 (stereo not drawn) [Example 131]
pKi [1]: 6.00 to 7.00
pKi [2]: 8.00 to 9.00

CNCC1CC1c1c[nH]c2ccc(F)cc12 (stereo not drawn) [Example 132]
pKi [1]: 6.00 to 7.00
pKi [2]: 7.00 to 8.00

CCN(C)CC1CC1c1c[nH]c2ccc(F)cc12 (stereo not drawn) [Example 133]
pKi [1]: 6.00 to 7.00
pKi [2]: 7.00 to 8.00

CCOC(=O)NCCN(C)CC1CC1c1c[nH]c2ccc(C#N)cc12 (stereo not drawn) [Example 134]
pKi [1]: < 6.00
pKi [2]: 8.00 to 9.00

CCNCC1CC1c1c[nH]c2ccc(C#N)cc12 (stereo not drawn) [Example 135]
pKi [1]: 7.00 to 8.00
pKi [2]: 8.00 to 9.00

CCNCC1CC1c1c[nH]c2ccc(F)cc12 (stereo not drawn) [Example 136]
pKi [1]: < 6.00
Ki [2]: 10 to 100 nM

N#Cc1ccc2[nH]cc(C3CC3CN3CCOCC3)c2c1 (stereo not drawn) [Example 137]
pKi [1]: < 6.00
Ki [2]: 10 to 100 nM

CN(CC1CC1c1c[nH]c2ccc(C#N)cc12)c1ccccc1 (stereo not drawn) [Example 138]
pKi [1]: < 6.00
pKi [2]: 7.00 to 8.00

Fc1ccc2[nH]cc(C3CC3CNC34C[C@H]5C[C@@H](C3)C[C@@H](C4)C5)c2c1 (stereo partly drawn) [Example 139]
pKi [1]: 7.00 to 8.00
pKi [2]: 7.00 to 8.00

CC1CCN(CC2CC2c2c[nH]c3ccc(F)cc23)CC1 (stereo not drawn) [Example 140]
pKi [1]: 6.00 to 7.00
pKi [2]: 6.00 to 7.00

Fc1ccc2[nH]cc(C3CC3CN3CCOCC3)c2c1 (stereo not drawn) [Example 141]
pKi [1]: 6.00 to 7.00
pKi [2]: 7.00 to 8.00

CCCNCC1CC1c1c[nH]c2ccc(F)cc12 (stereo not drawn) [Example 142]
pKi [1]: 6.00 to 7.00
pKi [2]: 7.00 to 8.00

CN(C)CC1CC1c1c[nH]c2ccccc12 (stereo not drawn) [Example 143]
pKi [1]: < 6.00
Ki [2]: 10 to 100 nM

CCN(CC)CCC1CC1c1c[nH]c2ccc(C#N)cc12 (stereo not drawn) [Example 144, 3-[2-(2-Diethylamino-ethyl)-cyclopropyl]-1H-indole-5-carbonitrile]
pKi [1]: 6.00 to 7.00
pKi [2]: 7.00 to 8.00
